In test [1] the test system is SW1900 cells (KRAS G12D). Nature of the test: Cell-based pERK HTRF assay in SW1900 cells (Biological Example 5). Here is the method: (§1) Biological Example 5: Cell-based PERK HTRF assay in AsPC-1, SW1900, HPAC, Capan-2, RKN, H358, HCT116, KP-2, H1573, A549, MKN1, and HT1080 cells
(§2) The inhibition of ERK phosphorylation, as measured using the HTRF Advanced Phospho-ERK 1/2 (Thr202/Tyr204) Detection Assay kit (Perkin Elmer), was used to determine the effectiveness of test compounds in disrupting KRAS-driven protein/effector signaling in cells.
(§3) On day 1, cells were seeded into 96-well plates at 2.5×10^4 cells/well in 100 μL of complete growth media supplemented with 10% fetal bovine serum (FBS) and incubated at 37° C., in the presence of 5% CO2.
(§4) On day 2, cells were treated with compounds diluted in DMSO at 0.25% final DMSO concentration. Compounds were dosed in a 9-point concentration curve with three-fold dilution between concentrations. Cells were incubated in the presence of compound for two hours at 37° C. Following this treatment period, cells were harvested by aspirating the media, adding 40 μL of kit-supplied 1x lysis buffer per well, and shaking for 30 minutes at 250 rpm at room temperature.
(§5) Following cell lysis, samples were homogenized by pipetting up and down twenty times and 16 μL of cell lysate per well was transferred from the 96-well cell culture plate to two wells of a 384-well detection plate. A complete detection buffer was prepared by diluting D2 and Eu Cryptate antibodies 1:20 in kit-provided detection solution, 4 μL of complete detection buffer was then added to each well with lysate. Plates were incubated with gentle rocking for 24 hours at 4° C.
(§6) Following this incubation period, plates were centrifuged at 500×g for one minute and analyzed on a CLARIOstar plate reader. Data was imported into Microsoft Excel and the signal from the 665 nm channel was divided by the signal from the 620 nm channel. % pERK was calculated as: […]
(§7) Data was imported to the Prism software package (Graphpad) and EC50 values were calculated using the log (inhibitor) vs, response—variable slopc (Four parameters) model.
(In general: TR-FRET usually uses a lanthanide donor and a delayed reading to cut background.)

The test system of the next test is HPAC cells (KRAS G12D). Description: 3D Cell viability assay in HPAC cells (Biological Example 6). The test is classed as cell-based. The settings on record: HPAC (KRAS G12D) spheroids. Here is the method:
(§8) Biological Example 6: 3D Cell viability assay in AsPC-1, SW1900, HPAC, Capan-2, RKN, H358, HCT116, KP-2, H1573, A549, MKN1, and HT1080 cells
(§9) The inhibition of cellular viability as a result of test compound treatment in a spheroid assay was measured using the CellTiter-Glow 3D Cell Viability Assay (Promega).
(§10) On Day 1, 1000 cells per well were seeded in 150 μL of complete growth media supplemented with 10% fetal bovine serum (FBS) and incubated at 37° C., in the presence of 5% CO2 in 96-well ultra-low attachment microplates (Corning) for 48 hours undisturbed to allow spheroids to form.
(§11) Following spheroid formation, cells were treated with compounds diluted in DMSO at 0.25% final DMSO concentration. Compounds were dosed in a 9-point concentration curve with three-fold dilution between concentrations. Cells were incubated in the presence of compound for 72 hours at 37° C., in the presence of 5% CO2.
(§12) Following this incubation period, the kit-provided CTG reagent was allowed to equilibrate for 30 minutes at room temperature, 150 μL of equilibrated CTG reagent was added to each well, and the plate was sealed before shaking at 250 rpm for 10 minutes at room temperature to lyse the cells, 150 μL of lysate per well was transferred to a 96-well plate and luminescence was read on a CLARIOstar plate reader.
(§13) Data was imported into the Prism software package (Graphpad) and EC50 values were calculated using the log (inhibitor) vs, response—variable slope (Four parameters) model.

Test [2] deals with HCT116 cells (KRAS G13D). Nature of the test: Cell-based pERK HTRF assay in HCT116 cells (Biological Example 5). Particulars: Homo sapiens, HCT-116. Here is the method:
as §1, §2, §3, §4, §5, §6, §7

Test [3] concerns RKN cells (KRAS G12V). Nature of the test: Cell-based pERK HTRF assay in RKN cells (Biological Example 5). How it is done:
as §1, §2, §3, §4, §5, §6, §7

For test [4], the system named is Capan-2 cells (KRAS G12V). Nature of the test: 3D Cell viability assay in Capan-2 cells (Biological Example 6). Type of test: cell-based. The settings on record: Capan-2 (KRAS G12V) spheroids, 72 hours. How it is done: as §8, §9, §10, §11, §12, §13
Test [5] has as its system MKN1 cells (KRAS amplification). Nature of the test: Cell-based pERK HTRF assay in MKN1 cells (Biological Example 5). How it is done:
as §1, §2, §3, §4, §5, §6, §7

The subject of test [6] is HCT116 cells (KRAS G13D). Nature of the test: 3D Cell viability assay in HCT116 cells (Biological Example 6). Type of test: cell-based. The settings on record: Homo sapiens, HCT-116; HCT116 (KRAS G13D) spheroids, 72 hours. How it is done: as §8, §9, §10, §11, §12, §13
In test [7] the test system is SW1900 cells (KRAS G12D). Description: 3D Cell viability assay in SW1900 cells (Biological Example 6). The test is classed as cell-based. Particulars: SW1990 (text: SW1900, KRAS G12D) spheroids, 72 hours. How it is done: as §8, §9, §10, §11, §12, §13
In test [8] the test system is RKN cells (KRAS G12V). Description: 3D Cell viability assay in RKN cells (Biological Example 6). Type of test: cell-based. Particulars: RKN (KRAS G12V) spheroids, 72 hours. Here is the method: as §8, §9, §10, §11, §12, §13
Test [9] relates to Capan-2 cells (KRAS G12V). Description: Cell-based pERK HTRF assay in Capan-2 cells (Biological Example 5). How it is done:
as §1, §2, §3, §4, §5, §6, §7

Another test has as its system AsPC-1 cells (KRAS G12D). Nature of the test: Cell-based pERK HTRF assay in AsPC-1 cells (Biological Example 5). How it is done:
as §1, §2, §3, §4, §5, §6, §7

The test system of a further test is HT1080 cells (NRAS). Description: 3D Cell viability assay in HT1080 cells (Biological Example 6). The test is classed as cell-based. Particulars: Homo sapiens, HT-1080; HT1080 (NRAS) spheroids, 72 hours. Here is the method:
as §8, §9, §10, §11, §12, §13

Another test deals with A549 cells (KRAS G12S). Description: 3D Cell viability assay in A549 cells (Biological Example 6). The test is classed as cell-based. The settings on record: Homo sapiens; A549 (KRAS G12S) spheroids, 72 hours. How it is done: as §8, §9, §10, §11, §12, §13
Another test has as its system H1573 cells (KRAS G12A). Nature of the test: 3D Cell viability assay in H1573 cells (Biological Example 6). Type of test: cell-based. Particulars: Homo sapiens, NCI-H1573; H1573 (KRAS G12A) spheroids, 72 hours. How it is done: as §8, §9, §10, §11, §12, §13
[10] abbreviates: Homo sapiens, SW1990, SW1990 cells (text: SW1900, KRAS G12D).
The mark [11] stands for this setting: Homo sapiens, MKN-1, MKN cells (MKN1, KRAS amplification).
[12] abbreviates: Homo sapiens, Capan-2, Capan-2 (KRAS G12V) cells.

pIC50: −log10 of the molar value.

By pIC50 is commonly meant −log10 of the IC50, conventionally taken in molar units. Higher therefore signals a low IC50. Turning to `CCN(c1nc(OC[C@@]23CCCN2C[C@H](F)C3)nc2c(F)c(-c3ccc(F)c4sc(N)c(C#N)c34)c(C(F)(F)F)cc12)[C@H]1C[C@H](C)N(C(=O)[C@@H]2CC2(F)F)C1` (atropisomer, axis not shown) [Compound 751], the negative-log IC50 (pIC50) with SW1900 cells (KRAS G12D) [1] (setting [10]) was at least 7.00; in the test on HPAC cells (KRAS G12D) (Homo sapiens, HPAC, 72 h), at least 7.00; with HCT116 cells (KRAS G13D) [2], at least 7.00; with RKN cells (KRAS G12V) [3], at least 7.00; in test [4] (Homo sapiens), at least 7.00; in test [5] (setting [11]), at least 7.00. The negative-log IC50 (pIC50) in the test on HCT116 cells (KRAS G13D) [6] is 6.00 to 7.00; in the test on SW1900 cells (KRAS G12D) [7] (Homo sapiens), at least 7.00; in the test on RKN cells (KRAS G12V) [8], at least 7.00; in [9] (setting [12]) it was at least 7.00.
Regarding `Cc1c(C(=O)N(C)C)nn2c1CN(c1nc(OC[C@@]34CCCN3C[C@H](F)C4)nc3c(F)c(-c4ccc(F)c5sc(N)c(C#N)c45)c(C(F)(F)F)cc13)CC2` (atropisomer, axis not shown; (aS)) [Compound 590, 5-((S)-7-(2-amino-3-cyano-7-fluorobenzo[b]thiophen-4-yl)-8-fluoro-2-(((2R,7aS)-2-fluorotetrahydro-1H-pyrrolizin-7a(5H)-yl)methoxy)-6-(trifluoromethyl)quinazolin-4-yl)-N,N,3-trimethyl-4,5,6,7-tetrahydropyrazolo[1,5-a]pyrazine-2-carboxamide], the negative logarithm of the IC50 (pIC50) in the test on AsPC-1 cells (KRAS G12D) (AsPC-1 (KRAS G12D) cells) is at least 7.00; in the test with SW1900 cells (KRAS G12D) [1] (SW1990 cells (text: SW1900, KRAS G12D)), at least 7.00; with HPAC cells (KRAS G12D) (72 hours) it was at least 7.00; with RKN cells (KRAS G12V) [3], at least 7.00; in [4], at least 7.00; in [5] (MKN cells (MKN1, KRAS amplification)) it was at least 7.00. For the same molecule, the pIC50 in the test with HCT116 cells (KRAS G13D) [6] was 6.00 to 7.00; with SW1900 cells (KRAS G12D) [7], at least 7.00; in the test on RKN cells (KRAS G12V) [8], at least 7.00; in test [9] (Capan-2 (KRAS G12V) cells), at least 7.00.
In the case of `CCN(c1nc(OC[C@@]23CCCN2C[C@H](F)C3)nc2c(F)c(-c3ccc(F)c4sc(N)c(C#N)c34)c(C(F)(F)F)cc12)[C@H]1CC(=O)N2CCC[C@@H]12` (atropisomer, axis not shown; (aS)) [Compound 697, 2-amino-4-((S)-4-(ethyl((1S,7aS)-3-oxohexahydro-1H-pyrrolizin-1-yl)amino)-8-fluoro-2-(((2R,7aS)-2-fluorotetrahydro-1H-pyrrolizin-7a(5H)-yl)methoxy)-6-(trifluoromethyl)quinazolin-7-yl)-7-fluorobenzo[b]thiophene-3-carbonitrile], the negative-log IC50 (pIC50) was at least 7.00 in the test with AsPC-1 cells (KRAS G12D) (Homo sapiens, ASPC1, AsPC-1 (KRAS G12D) cells); at least 7.00 in the test with SW1900 cells (KRAS G12D) [1] (setting [10]); at least 7.00 in the test with HPAC cells (KRAS G12D) (Homo sapiens, HPAC, 72 h); at least 7.00 with RKN cells (KRAS G12V) [3]; at least 7.00 in test [4] (Homo sapiens); at least 7.00 in test [5] (setting [11]). Also, the pIC50 was 6.00 to 7.00 with HCT116 cells (KRAS G13D) [6], at least 7.00 in the test with SW1900 cells (KRAS G12D) [7] (Homo sapiens), at least 7.00 in the test on RKN cells (KRAS G12V) [8] and at least 7.00 in test [9] (setting [12]).
Consider `N#Cc1c(N)sc2c(F)ccc(-c3c(C(F)(F)F)cc4c(N5CC6CC5CO6)nc(OC[C@@]56CCCN5C[C@H](F)C6)nc4c3F)c12` (stereo partly shown) [Compound 147], for which the negative logarithm of the IC50 (pIC50) is below 6.00 with HT1080 cells (NRAS); 6.00 to 7.00 with HPAC cells (KRAS G12D) (Homo sapiens, HPAC, 72 h); at least 7.00 with A549 cells (KRAS G12S); 6.00 to 7.00 in the test with HCT116 cells (KRAS G13D) [6]; 6.00 to 7.00 in the test with SW1900 cells (KRAS G12D) [7] (Homo sapiens); at least 7.00 in the test with H1573 cells (KRAS G12A). For the same molecule, the pIC50 in test [9] (setting [12]) is at least 7.00.
